Experiments:
Assay in all cases: KINOMEscan
Type in all cases: binding
Conditions in all cases: read-out: % control activity remaining
DCAMKL1 = molecular target: T1, DCAMKL1 (Homo sapiens, UniProt O15075)
T1 construct: purchased Eurofins DiscoverX KINOMEscan
T1 sequence (O15075 1-740): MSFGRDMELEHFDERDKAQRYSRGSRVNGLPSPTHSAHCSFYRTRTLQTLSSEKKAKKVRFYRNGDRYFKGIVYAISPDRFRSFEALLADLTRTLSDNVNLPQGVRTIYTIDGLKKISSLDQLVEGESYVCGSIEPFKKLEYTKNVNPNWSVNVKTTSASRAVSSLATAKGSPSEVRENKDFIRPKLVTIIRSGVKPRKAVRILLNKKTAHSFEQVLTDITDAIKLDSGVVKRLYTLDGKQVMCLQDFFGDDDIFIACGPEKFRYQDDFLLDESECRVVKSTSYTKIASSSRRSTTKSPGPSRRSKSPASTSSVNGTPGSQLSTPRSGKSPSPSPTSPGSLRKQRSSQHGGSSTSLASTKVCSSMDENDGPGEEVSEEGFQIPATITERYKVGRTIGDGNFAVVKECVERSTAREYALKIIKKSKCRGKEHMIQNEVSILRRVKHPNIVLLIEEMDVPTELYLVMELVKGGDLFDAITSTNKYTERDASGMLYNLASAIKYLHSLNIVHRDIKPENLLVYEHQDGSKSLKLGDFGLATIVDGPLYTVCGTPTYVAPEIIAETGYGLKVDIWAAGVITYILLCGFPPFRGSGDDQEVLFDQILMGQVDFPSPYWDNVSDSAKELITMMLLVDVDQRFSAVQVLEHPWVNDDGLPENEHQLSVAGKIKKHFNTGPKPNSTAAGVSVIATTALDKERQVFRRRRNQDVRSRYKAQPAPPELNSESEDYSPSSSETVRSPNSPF

GRK1 = molecular target: T2, GRK1 (Homo sapiens, UniProt Q15835)
T2 construct: purchased Eurofins DiscoverX KINOMEscan
T2 sequence (Q15835 1-563): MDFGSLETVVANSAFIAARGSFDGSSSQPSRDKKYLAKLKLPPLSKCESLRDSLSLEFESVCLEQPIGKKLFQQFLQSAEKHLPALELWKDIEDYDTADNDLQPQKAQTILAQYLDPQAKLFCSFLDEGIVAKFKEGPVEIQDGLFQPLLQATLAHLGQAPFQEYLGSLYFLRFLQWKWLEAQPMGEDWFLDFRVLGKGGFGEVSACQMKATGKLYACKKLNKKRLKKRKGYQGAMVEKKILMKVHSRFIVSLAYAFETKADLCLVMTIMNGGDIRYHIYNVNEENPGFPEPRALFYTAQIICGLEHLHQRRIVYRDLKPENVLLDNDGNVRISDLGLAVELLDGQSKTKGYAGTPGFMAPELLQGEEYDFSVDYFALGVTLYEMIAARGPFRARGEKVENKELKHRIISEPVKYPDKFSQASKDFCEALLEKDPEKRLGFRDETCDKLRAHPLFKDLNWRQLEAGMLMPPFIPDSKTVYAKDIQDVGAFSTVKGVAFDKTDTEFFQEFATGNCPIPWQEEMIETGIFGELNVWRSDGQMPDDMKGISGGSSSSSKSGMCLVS

SgK110 = molecular target: T3, SgK110 (Homo sapiens, UniProt P0C264)
T3 construct: purchased Eurofins DiscoverX KINOMEscan
T3 sequence (P0C264 1-359): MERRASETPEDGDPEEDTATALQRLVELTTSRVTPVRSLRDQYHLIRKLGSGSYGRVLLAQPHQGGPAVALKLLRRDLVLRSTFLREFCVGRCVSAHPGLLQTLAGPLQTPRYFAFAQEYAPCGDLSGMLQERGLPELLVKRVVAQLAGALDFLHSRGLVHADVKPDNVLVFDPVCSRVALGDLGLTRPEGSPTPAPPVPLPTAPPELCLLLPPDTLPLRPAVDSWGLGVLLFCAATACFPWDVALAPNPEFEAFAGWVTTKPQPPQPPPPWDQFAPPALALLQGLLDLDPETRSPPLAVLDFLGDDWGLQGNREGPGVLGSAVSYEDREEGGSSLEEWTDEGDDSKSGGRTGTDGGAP

TXK = molecular target: T4, TXK (Homo sapiens, UniProt P42681)
T4 construct: purchased Eurofins DiscoverX KINOMEscan
T4 sequence (P42681 1-527): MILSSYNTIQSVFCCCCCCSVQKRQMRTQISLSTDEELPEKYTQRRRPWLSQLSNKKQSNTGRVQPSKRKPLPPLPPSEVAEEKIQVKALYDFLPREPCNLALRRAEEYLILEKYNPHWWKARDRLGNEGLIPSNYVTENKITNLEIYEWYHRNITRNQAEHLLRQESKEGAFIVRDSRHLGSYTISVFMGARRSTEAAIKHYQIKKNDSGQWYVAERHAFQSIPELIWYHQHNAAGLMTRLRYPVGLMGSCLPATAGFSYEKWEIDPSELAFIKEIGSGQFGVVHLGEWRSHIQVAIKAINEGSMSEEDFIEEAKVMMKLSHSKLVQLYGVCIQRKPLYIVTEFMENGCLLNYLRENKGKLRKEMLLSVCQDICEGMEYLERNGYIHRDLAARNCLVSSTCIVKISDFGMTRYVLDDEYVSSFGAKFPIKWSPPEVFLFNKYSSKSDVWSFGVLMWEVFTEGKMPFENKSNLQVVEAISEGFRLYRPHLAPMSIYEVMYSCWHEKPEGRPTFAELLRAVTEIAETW

TIE2 = molecular target: T5, TIE2 (Homo sapiens, UniProt Q02763)
T5 construct: purchased Eurofins DiscoverX KINOMEscan
T5 sequence (Q02763 23-1124): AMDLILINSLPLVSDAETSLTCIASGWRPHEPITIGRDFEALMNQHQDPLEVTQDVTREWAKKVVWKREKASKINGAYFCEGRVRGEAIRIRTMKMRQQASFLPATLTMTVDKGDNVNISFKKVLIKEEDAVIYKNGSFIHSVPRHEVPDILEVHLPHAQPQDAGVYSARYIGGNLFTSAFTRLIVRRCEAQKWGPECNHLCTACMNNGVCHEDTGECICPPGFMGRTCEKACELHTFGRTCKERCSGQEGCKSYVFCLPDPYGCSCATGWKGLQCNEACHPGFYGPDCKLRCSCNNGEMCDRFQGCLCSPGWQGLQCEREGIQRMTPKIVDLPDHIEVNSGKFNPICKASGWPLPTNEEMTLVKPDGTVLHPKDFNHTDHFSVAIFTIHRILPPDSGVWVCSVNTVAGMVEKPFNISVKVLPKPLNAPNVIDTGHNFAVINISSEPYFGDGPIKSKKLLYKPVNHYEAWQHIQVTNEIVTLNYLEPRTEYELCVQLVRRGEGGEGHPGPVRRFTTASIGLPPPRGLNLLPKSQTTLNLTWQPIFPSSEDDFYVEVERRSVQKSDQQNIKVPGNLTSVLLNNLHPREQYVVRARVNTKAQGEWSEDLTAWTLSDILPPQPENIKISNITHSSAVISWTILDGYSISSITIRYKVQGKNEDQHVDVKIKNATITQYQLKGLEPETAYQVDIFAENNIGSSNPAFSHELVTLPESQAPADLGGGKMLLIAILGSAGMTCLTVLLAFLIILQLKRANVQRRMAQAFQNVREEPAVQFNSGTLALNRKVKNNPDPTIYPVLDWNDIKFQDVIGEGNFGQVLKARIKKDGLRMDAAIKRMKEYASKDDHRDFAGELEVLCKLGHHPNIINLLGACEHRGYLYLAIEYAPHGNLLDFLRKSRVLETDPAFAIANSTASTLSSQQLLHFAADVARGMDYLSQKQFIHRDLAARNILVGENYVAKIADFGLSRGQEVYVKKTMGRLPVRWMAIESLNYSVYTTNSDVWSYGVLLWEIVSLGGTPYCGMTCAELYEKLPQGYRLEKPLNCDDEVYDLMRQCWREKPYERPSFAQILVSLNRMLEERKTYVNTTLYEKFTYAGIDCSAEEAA

CDK11 = molecular target: T6, CDK11 (Homo sapiens, UniProt Q9BWU1)
T6 construct: purchased Eurofins DiscoverX KINOMEscan
T6 sequence (Q9BWU1 whole entry): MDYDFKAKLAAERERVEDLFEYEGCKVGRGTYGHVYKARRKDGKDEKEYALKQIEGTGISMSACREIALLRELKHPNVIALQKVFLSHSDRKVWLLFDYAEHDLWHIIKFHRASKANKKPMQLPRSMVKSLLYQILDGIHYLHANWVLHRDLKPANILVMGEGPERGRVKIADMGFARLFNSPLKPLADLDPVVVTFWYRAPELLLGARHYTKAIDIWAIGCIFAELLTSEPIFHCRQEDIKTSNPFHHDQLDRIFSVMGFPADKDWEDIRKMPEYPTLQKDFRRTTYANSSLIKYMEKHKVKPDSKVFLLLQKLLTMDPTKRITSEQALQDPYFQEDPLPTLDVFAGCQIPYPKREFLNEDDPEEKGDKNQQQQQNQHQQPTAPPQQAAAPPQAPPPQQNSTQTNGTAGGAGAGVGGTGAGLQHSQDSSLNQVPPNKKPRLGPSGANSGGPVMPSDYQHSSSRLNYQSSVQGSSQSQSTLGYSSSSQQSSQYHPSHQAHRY

KIT(D816H) = molecular target: T7, KIT(D816H) (Homo sapiens, UniProt P10721, D816H)
T7 construct: purchased Eurofins DiscoverX KINOMEscan
T7 sequence (P10721 26-976 D816H): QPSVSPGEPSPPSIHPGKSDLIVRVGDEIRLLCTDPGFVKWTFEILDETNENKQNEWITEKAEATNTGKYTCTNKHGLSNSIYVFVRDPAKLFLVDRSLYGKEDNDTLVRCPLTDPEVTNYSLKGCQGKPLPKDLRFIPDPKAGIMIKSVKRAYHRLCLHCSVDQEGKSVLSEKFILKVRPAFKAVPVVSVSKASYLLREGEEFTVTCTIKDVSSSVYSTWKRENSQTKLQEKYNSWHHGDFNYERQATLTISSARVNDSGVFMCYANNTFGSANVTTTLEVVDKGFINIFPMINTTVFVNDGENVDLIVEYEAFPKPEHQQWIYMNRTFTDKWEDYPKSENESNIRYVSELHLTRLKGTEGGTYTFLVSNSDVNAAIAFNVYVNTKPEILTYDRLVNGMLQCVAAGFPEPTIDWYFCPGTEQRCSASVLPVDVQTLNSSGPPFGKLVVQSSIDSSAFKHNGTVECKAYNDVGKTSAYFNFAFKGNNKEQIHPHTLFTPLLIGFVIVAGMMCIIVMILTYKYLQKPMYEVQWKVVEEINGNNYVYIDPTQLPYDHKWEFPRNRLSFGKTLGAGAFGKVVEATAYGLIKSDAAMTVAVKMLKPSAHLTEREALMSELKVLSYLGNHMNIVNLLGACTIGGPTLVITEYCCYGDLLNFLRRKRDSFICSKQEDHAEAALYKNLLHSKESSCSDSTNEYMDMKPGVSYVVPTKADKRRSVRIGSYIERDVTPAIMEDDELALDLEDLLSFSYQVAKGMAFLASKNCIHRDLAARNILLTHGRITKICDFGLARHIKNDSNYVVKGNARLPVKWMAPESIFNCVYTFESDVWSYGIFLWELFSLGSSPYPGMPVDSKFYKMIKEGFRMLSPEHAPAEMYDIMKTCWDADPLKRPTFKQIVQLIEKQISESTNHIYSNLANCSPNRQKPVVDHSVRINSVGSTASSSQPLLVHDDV

CAMK2D = molecular target: T8, CAMK2D (Homo sapiens, UniProt Q13557)
T8 construct: purchased Eurofins DiscoverX KINOMEscan
T8 sequence (Q13557 whole entry): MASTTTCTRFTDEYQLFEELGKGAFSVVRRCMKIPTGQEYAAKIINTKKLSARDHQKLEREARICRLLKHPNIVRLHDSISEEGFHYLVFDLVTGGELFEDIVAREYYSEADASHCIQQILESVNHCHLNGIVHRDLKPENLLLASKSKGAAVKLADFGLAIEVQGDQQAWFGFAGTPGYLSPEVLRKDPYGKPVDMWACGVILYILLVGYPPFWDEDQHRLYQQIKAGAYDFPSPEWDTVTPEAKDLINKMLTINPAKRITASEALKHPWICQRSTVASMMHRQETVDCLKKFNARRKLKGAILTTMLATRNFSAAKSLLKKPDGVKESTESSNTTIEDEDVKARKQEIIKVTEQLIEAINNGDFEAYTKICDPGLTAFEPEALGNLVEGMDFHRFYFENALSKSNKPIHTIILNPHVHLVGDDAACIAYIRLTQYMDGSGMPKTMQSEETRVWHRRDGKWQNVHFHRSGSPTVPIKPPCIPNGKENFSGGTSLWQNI

ACVR1B = molecular target: T9, ACVR1B (Homo sapiens, UniProt P36896)
T9 construct: purchased Eurofins DiscoverX KINOMEscan
T9 sequence (P36896 24-505): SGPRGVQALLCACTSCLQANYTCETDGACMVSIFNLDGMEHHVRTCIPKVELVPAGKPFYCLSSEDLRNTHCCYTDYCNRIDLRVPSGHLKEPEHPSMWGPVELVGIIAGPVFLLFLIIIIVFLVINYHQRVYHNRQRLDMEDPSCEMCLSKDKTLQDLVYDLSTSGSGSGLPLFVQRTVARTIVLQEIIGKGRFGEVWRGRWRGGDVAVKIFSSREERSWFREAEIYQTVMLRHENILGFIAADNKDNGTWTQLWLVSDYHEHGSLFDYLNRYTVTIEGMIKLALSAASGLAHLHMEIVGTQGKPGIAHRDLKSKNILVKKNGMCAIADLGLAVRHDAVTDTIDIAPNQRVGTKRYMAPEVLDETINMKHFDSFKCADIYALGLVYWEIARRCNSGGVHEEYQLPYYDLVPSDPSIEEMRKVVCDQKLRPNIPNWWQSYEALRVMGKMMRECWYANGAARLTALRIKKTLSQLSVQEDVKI

Row | SMILES | remaining binding at 1 µM (DCAMKL1) [%] | remaining binding at 1 µM (GRK1) [%] | remaining binding at 1 µM (SgK110) [%] | remaining binding at 1 µM (TXK) [%] | remaining binding at 1 µM (TIE2) [%] | remaining binding at 1 µM (CDK11) [%] | remaining binding at 1 µM (KIT(D816H)) [%] | remaining binding at 1 µM (CAMK2D) [%] | remaining binding at 1 µM (ACVR1B) [%]
1 | Clc1cc(NCC2CC2)c2ncc(-c3ccc4[nH]ncc4c3)n2n1 [compound 2, 6-Chloro-N-(cyclopropylmethyl)-3-(1H-indazol-5-yl)imidazo[1,2-b]pyridazin-8-amine] | 99 | 100 | 100 | 85 | 78 | 97 | 100 | 97 | 89
2 | O=C(CN1CCOCC1)N[C@H]1CC[C@H](Nc2cc(Cl)nn3c(-c4ccc5[nH]ncc5c4)cnc23)CC1 [compound 26] | 100 | 80 | 100 | 88 | 89 | 98 | 63 | 62 | 91
3 | CN1CCC(CNc2cc(Cl)nn3c(-c4cc5nc(Nc6ccccc6)[nH]c5cc4F)cnc23)CC1 [compound 31, 6-Chloro-3-(6-fluoro-2-(phenylamino)-1H-benzo[d]imidazol-5-yl)-N-((1-methylpiperidin-4-yl)methyl)imidazo[1,2-b]pyridazin-8-amine] | 81 | 82 | 100 | 93 | 91 | 91 | 96 | 100 | 100
